Measurements as given in PMC11555173, “Preparation and preliminary evaluation of a tritium-labeled allosteric P2X4 receptor antagonist” (Purinergic Signalling, 2024).
“Also recorded” adds a separate entry of the source. Like-named read-outs stand apart in the source and are kept apart here. One block for each compound: values may come before it.

Tests used:
human P2X4 receptor [1] = target: T1, human P2X4 receptor (Homo sapiens, UniProt Q99571); test: Calcium influx assay, 1321N1 astrocytoma cells stably expressing human P2X4 receptor; format: cell-based; set-up: expressed in transfected cells
T1 sequence (Q99571 1-388): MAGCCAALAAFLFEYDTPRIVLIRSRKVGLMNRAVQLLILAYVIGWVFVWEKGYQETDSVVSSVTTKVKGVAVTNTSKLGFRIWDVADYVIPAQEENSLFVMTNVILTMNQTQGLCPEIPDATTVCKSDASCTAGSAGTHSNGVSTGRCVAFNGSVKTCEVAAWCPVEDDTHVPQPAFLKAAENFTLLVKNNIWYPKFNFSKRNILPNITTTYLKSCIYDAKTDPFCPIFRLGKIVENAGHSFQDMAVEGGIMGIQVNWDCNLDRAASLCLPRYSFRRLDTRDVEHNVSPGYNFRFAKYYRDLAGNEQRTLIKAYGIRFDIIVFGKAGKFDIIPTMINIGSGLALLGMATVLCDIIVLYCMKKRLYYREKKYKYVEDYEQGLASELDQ
Procedure: Calcium influx assays using 1321N1 astrocytoma cells that stably expressed the human P2X4 receptor were performed. Concentration-dependent inhibition of ATP-induced calcium influx was observed.
(§1) To determine the effects of the compound on P2X4, P2X2, and P2X7 receptors, the agonist-mediated increases in cytosolic Ca^2+ concentrations were measured using the fluorescent Ca^2+ chelating dye Fluo-4 acetoxymethyl ester (AM) (Thermo Fisher Scientific). On the first day, 1321N1 astrocytoma cells (45.000 cells/well) stably expressing the respective P2X receptor were seeded into a 96-well plate (No. 3340, Corning, Kennebunk, Maine, USA), and incubated at 37 °C and 10% of CO2. […]
(§2) Following the incubation, the dye solution was carefully removed, and the antagonist (dissolved in DMSO) and HBSS buffer were added to the cells. […] To activate the receptors, transparent 96-well reagent plates (Boettger, Bodenmais, Germany) containing the agonists dissolved in HBSS buffer (10-fold concentration of previously determined EC80) were prepared. The plates were measured after 30 min of preincubation with antagonist with the imaging plate reader NOVOstar (BMG Labtech GmbH, Offenburg, Germany) at 520 nm for 30 s at 0.4 s intervals.

human P2X4 receptor [2] = target: T1, human P2X4 receptor; test: [3H]PSB-OR-2020 radioligand binding assay, HEK293 cell membranes expressing human P2X4 receptor; set-up: expressed in transfected cells; host or cells: HEK293 cells, transient transfection (pQCXIN; pcDNA3.1(-) was also tried)
P2X4 receptor [3] = test system: P2X4 receptor; set-up: method as in PMID 36150180; conditions: ref [38]; cited from earlier work
P2X4 receptor [4] = test system: P2X4 receptor; set-up: method as in PMID 35338432; conditions: ref [44]; cited from earlier work
P2X4 = test system: P2X4; set-up: method as in PMID 30537520, PMID 34476721; conditions: ref [14], [36]; cited from earlier work
human P2X4 receptor [5] = target: T1, human P2X4 receptor; set-up: expressed in transfected cells; host or cells: HEK293 cells, transient transfection (pQCXIN; pcDNA3.1(-) was also tried); conditions: ref Müller et al. [36]; cited from earlier work
human P2X1 = target: T2, human P2X1 (Homo sapiens, UniProt P51575); test: Calcium influx assay, 1321N1 astrocytoma cells stably expressing human P2X1 receptor; format: cell-based
T2 construct: expressed in transfected cells
T2 sequence (P51575 1-399): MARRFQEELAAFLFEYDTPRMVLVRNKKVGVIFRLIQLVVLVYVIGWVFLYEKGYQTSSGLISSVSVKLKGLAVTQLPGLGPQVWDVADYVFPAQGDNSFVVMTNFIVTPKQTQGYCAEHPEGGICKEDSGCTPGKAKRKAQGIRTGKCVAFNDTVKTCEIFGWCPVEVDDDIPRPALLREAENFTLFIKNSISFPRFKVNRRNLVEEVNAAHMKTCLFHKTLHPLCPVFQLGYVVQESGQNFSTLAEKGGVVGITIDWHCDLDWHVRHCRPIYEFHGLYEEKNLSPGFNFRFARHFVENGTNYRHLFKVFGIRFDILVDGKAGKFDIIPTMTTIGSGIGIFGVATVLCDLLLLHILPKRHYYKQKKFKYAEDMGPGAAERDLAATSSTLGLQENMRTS
Procedure: (§3) The selectivity of PSB-OR-2020 versus other P2X receptor subtypes was determined in the same type of assay using 1321N1 astrocytoma cells stably expressing the respective human P2X receptor subtype (see Table 1).
as §1, §2

human P2X2 = target: T3, human P2X2 (Homo sapiens, UniProt Q9UBL9); test: Calcium influx assay, 1321N1 astrocytoma cells stably expressing human P2X2 receptor; format: cell-based
T3 construct: expressed in transfected cells
T3 sequence (Q9UBL9 1-471): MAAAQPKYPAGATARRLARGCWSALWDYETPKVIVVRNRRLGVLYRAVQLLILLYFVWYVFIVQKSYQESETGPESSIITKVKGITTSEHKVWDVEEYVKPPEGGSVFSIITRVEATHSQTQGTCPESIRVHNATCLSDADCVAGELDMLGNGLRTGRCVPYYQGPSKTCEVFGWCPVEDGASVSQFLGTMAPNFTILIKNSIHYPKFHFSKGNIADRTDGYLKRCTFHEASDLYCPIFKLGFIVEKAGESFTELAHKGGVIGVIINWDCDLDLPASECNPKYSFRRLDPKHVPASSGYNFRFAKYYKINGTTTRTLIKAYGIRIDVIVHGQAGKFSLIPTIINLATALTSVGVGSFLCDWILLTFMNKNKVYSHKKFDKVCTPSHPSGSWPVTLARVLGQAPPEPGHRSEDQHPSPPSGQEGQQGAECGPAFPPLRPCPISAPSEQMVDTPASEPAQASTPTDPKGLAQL

human P2X3 = target: T4, human P2X3 (Homo sapiens, UniProt P56373); test: Calcium influx assay, 1321N1 astrocytoma cells stably expressing human P2X3 receptor; format: cell-based
T4 construct: expressed in transfected cells
T4 sequence (P56373 1-397): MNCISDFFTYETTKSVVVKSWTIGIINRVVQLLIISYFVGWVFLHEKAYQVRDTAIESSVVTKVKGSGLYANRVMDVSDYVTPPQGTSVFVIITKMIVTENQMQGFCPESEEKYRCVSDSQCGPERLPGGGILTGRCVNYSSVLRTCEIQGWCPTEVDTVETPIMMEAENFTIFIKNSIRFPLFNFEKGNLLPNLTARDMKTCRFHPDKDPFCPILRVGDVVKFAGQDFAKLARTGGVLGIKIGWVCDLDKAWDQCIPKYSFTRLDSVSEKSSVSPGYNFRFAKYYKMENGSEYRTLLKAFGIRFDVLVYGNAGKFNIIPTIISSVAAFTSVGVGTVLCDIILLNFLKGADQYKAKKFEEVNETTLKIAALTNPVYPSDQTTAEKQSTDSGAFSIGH
Procedure: as §3, §1, §2

human P2X7 = target: T5, human P2X7 (Homo sapiens, UniProt Q99572); test: Calcium influx assay, 1321N1 astrocytoma cells stably expressing human P2X7 receptor (agonist Bz-ATP); format: cell-based; conditions: Bz-ATP 6,000 nM (EC80)
T5 construct: expressed in transfected cells
T5 sequence (Q99572 1-595): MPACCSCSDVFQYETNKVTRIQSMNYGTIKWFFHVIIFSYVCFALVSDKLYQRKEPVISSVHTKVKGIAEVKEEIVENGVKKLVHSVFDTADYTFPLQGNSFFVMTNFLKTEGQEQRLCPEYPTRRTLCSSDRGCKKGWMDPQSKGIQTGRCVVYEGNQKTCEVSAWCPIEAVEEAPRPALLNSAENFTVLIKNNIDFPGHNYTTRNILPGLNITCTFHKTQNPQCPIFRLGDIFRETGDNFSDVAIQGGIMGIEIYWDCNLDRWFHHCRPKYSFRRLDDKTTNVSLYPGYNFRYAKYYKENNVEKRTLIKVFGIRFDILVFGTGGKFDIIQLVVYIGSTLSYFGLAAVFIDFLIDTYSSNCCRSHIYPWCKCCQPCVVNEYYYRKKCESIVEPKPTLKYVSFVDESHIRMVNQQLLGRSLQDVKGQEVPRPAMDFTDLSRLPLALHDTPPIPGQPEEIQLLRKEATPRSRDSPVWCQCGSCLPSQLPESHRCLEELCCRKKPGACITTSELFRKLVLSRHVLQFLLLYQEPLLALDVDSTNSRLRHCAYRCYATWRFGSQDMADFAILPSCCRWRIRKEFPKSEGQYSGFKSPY
Procedure: as §3, §1, §2

[6] = high concentration of competitor, radioligand 10 nM
[7] = 4 °C, three independent association and dissociation experiments, read-out: kinetic KD value (koff/kon)
[8] = vs. [3H]PSB-OR-2020 (10 nM), HEK293 membranes, human P2X4, read-out: KD value, homologous competition binding
[9] = 4 °C, radioligand 10 nM, HEK293 membranes, human P2X4

EC80 concentration of agonist (human P2X4 receptor [1]; human P2X4, calcium influx): 300 nM
SMILES: Nc1ncnc2c1ncn2[C@@H]1O[C@H](COP(=O)(O)OP(=O)(O)OP(=O)(O)O)[C@@H](O)[C@H]1O [ATP, Adenosine 5’-triphosphate, reference compound]
displacement of [3H]PSB-OR-2020 from its binding site (human P2X4 receptor [2]; [6]): only slightly displaced; also recorded: does not compete

SMILES: CC(C)c1cc(Br)c(NC(=O)Nc2cccnc2)c(Br)c1 [BX430, reference compound]
displacement of [3H]PSB-OR-2020 from its binding site (human P2X4 receptor [2]; [6]): not or only partially be displaced
displacement of [3H]PSB-OR-2020 from its binding site (human P2X4 receptor [2]; high concentrations of competitor, radioligand 10 nM): less than 40%

SMILES: O=C1CC(=O)N(c2ccnc(-c3noc(=S)[nH]3)c2)c2ccc3ccccc3c2N1 [MRS4719]
effects in a murine ischemic stroke model (P2X4 receptor [3]): neuroprotective and neuro-rehabilitative effects

SMILES: O=C1CC(=O)N(c2cccc(-c3noc(=S)[nH]3)c2)c2ccc3ccccc3c2N1 [NP-1815-PX]
effects in a murine model of colitis (P2X4 receptor [4]): improve several inflammatory parameters

displacement of [3H]PSB-OR-2020 from its binding site (human P2X4 receptor [2]; [6]): completely displaced
SMILES: Cc1nsc(-c2ccc(C)c(NCC(=O)c3c[nH]c4ccccc34)c2)n1 [PSB-15417]
efficacy in an animal model of neuropathic pain (P2X4): showing efficacy
IC50 (human P2X4 receptor [5]): 21.9 nM

IC50 (human P2X1): > 10000 nM
IC50 (human P2X2): > 10000 nM
IC50 (human P2X3): 2030 nM
IC50 at P2X3 receptor relative to IC50 at P2X4 receptor (human P2X3; P2X3 vs P2X4 selectivity): about 300 fold
IC50 (human P2X7): > 10000 nM
IC50 (human P2X4 receptor [1]; read-out: IC50 ± SEM, inhibition of ATP-induced Ca2+ influx): 6.32 ± 1.52 nM
Kd (human P2X4 receptor [2]; [7]): 7.06 ± 3.23 nM
Bmax value (human P2X4 receptor [2]; homologous competition binding, HEK293 membranes, human P2X4): 71.7 fmol/mg of protein
Kd (human P2X4 receptor [2]; [8]): 20.4 ± 7.5 nM
SMILES: Cc1nsc(-c2ccc(C)c(NCC(=O)N3CCc4c3cccc4[C@](C)(O)CO)c2)n1 [PSB-OR-2020, (S)-1-(4-(1,2-dihydroxypropane-2yl)indolin-1-yl)-2-((2-methyl-5-(3-methyl-1,2,4-thiadiazol-5-yl)phenyl)amino)ethane-1-one]

association half-life (human P2X4 receptor [2]; [9]): 8.44 ± 2.59 min
dissociation half-life (human P2X4 receptor [2]; [9]): 20.4 ± 2.9 min
Kd (human P2X4 receptor [2]; [7]): 7.06 ± 3.23 nM
Kd (human P2X4 receptor [2]; [8]): 20.4 nM
SMILES: [3H]c1cc2c(c([C@](C)(O)CO)c1)CCN2C(=O)CNc1cc(-c2nc(C)ns2)c([3H])cc1C [[^3H]PSB-OR-2020]
